“Also recorded” adds a separate entry of the source.
Key:
Type in all cases: cell-based, porcine
RPE cells [1] = assay: Alkalinisation and measurement of lysosomal pH (pHL) of RPE cells treated with tamoxifen
cathepsin D = assay: Cathepsin D activity measurement in RPE cells treated with concanamycin; settings: FIG. 2
Protocol: (§1) Pigs' eyes are delivered to Institut de la Vision in a cold medium from a local slaughterhouse. The eyes are dissected so as to remove the anterior segment of the eye, the vitreous body and the neural retina. The eyeballs are then washed twice with PBS, filled with trypsin (0.25% in PBS) and incubated at 37° C. for 1 hr15. The RPE cells are then retrieved by repeated pipetting, centrifuged to remove the trypsin, and resuspended in DMEM culture medium supplemented with 20% foetal calf serum (DMEM20% FCS). The cells of each eye are then inoculated in a 6 cm diameter Petri dish, cultured in an atmosphere containing 5% CO2 at 37° C., and the culture medium is replaced after 24 hours and 4 days in vitro. After one week, the cells reach confluency and can then be passaged.
After one week in culture, the cells are treated with trypsin and transferred into 3.5 cm diameter Petri dishes at a cell density of 1.5×10^5 cells/cm^2 in DMEM2% FCS. After 24 hours, the cells are treated with 20 nM of concanamycin so as to inhibit the activity of cathepsin D, as well as with a beta-adrenergic agonist. After 24 hours of treatment, the cells are washed with PBS and then transferred into an extraction buffer on ice. The cell extract is centrifuged at 2000 rpm at 4° C. for 10 minutes and the supernatant corresponding to the cytosolic part is frozen at −80° C. until the measurement of the enzyme activity. The activity of cathepsin D is measured using the Anson method (J Gen Physiol. 1938, 22(1):79-89) that we adapted to our experimental schedule. In brief, the cytosolic extract is incubated for 10 minutes at 37° C. in a haemoglobin solution (2.5% in 400 mM of citrate buffer at pH 2.8). The reaction is stopped by adding 5% trichloroacetic acid and the mixture is centrifuged. The optical density of the supernatant containing the breakdown products of haemoglobin is measured at 280 nm. The absorbance is corrected by subtracting that of the control, prepared as above but by adding haemoglobin after stopping the enzymatic reaction. One unit of cathepsin D is then defined as being the quantity of enzyme required to induce a change of absorbance of 1 to 280 nm for 60 minutes of incubation using the experimental conditions described hereinabove. The protein concentration of the cell lysates is measured according to the Bradford method so as to normalise the results.
Cathepsin D is the lysosomal proteolytic enzyme mainly present in the retinal pigment epithelium involved in photoreceptor outer segment digestion. The activity thereof is dependent on the protonation of the amino acid aspartic acid of the active site thereof and on the conformation thereof, which both require an acidic environment. […]

RPE cells [2] = assay: In vitro model of lipofuscin accumulation in RPE (oxidised photoreceptor outer segments); settings: FIG. 3
Protocol: as §1, with “The cells of each eye are then inoculated in a 6 cm diameter Petri dish, cultured in an atmosphere containing 5% CO2 at 37° C., and the culture medium is replaced after 24 hours and 4 days in vitro. After one week, the cells reach confluency and can then be passaged.” left out
In order to induce an accumulation of lipofuscin type material in the RPE cells, the latter are treated 3 times per week with 5×10^6 POS-ox in DMEM20% FCS containing 2.5% of sucrose for two weeks. […] The autofluorescence induced by the accumulation of lipofuscin is measured using a plate reader (excitation at 480 nm and emission between 500 and 700 nm corresponding to the emission spectrum of lipofuscin).
In order to verify whether the different beta-adrenergic agonists are capable of also acting upon lipofuscin accumulation, we also tested them in a cell model wherein this accumulation is induced by treating RPE cells with oxidised OS by UV exposure every two days. […] The lipofuscin accumulation was measured after two weeks of co-treatment by measuring the autofluorescence of the cells.

[3] = RPE cells with 20 nM concanamycin, 24 hours of treatment

## C[C@H](Cc1ccc2c(c1)OC(C(=O)[O-])(C(=O)[O-])O2)NC[C@H](O)c1cccc(Cl)c1.[Na+].[Na+] [CL-316,243]
RPE cells [1]; cells treated with 15 μM tamoxifen, FIG. 1
  concentration from which effective on re-acidification of the lysosomal pH: 20 nM

## C/C=C/[C@H]1O[C@@](O)([C@@H](C)[C@H](O)[C@H](C)[C@H]2OC(=O)/C(OC)=C/C(C)=C/[C@@H](C)[C@@H](O)[C@@H](CC)[C@@H](O)[C@H](C)C/C(C)=C/C=C/[C@@H]2OC)C[C@@H](O)[C@@H]1C [concanamycin]
Cathepsin D; [3]
  cathepsin D activity: 0.013 unit/ml of enzyme/min/μg of proteins

## Nc1nc(CC(=O)Nc2ccc(CCNC[C@H](O)c3ccccc3)cc2)cs1 [mirabegron, (R)-2-(2-aminothiazol-4-yl)-4′-[2-[(2-hydroxy-2-phenylethyl)amino]ethyl]acetic acid anilide]
Cathepsin D; RPE cells treated with concanamycin
  restoration of cathepsin D activity (in words): significantly restores the activity of cathepsin D
Cathepsin D; [3]
  cathepsin D activity: 0.040 unit/ml of enzyme/min/μg of proteins
  multiplication of cathepsin D activity compared to negative control (concanamycin): 3 fold
RPE cells [1]; 1 pM, FIG. 1
  effect on lysosomal pH (in words): lowers the lysosomal pH
RPE cells [2]; RPE cells, two weeks of treatment
  effect on lipofuscin accumulation / photoreceptor outer segment digestion (in words): significantly reduce the accumulation of lipofuscin; also recorded: reduces the accumulation of lipofuscin
RPE cells [2]; agonist at 10 μM, two weeks of co-treatment with oxidised outer segments, versus DMSO control
  reduction of the accumulation of lipofuscin by RPE cells (autofluorescence): ~20%

## CC/C(=C(\c1ccccc1)c1ccc(OCCN(C)C)cc1)c1ccccc1 [tamoxifen]
RPE cells [1]; 15 μM tamoxifen, in 20 minutes
  increase in the lysosomal pH: ~1 pH unit

From patent US20180353482A1, “MIRABEGRON FOR THE TREATMENT OF RETINAL DISEASES” (SORBONNE UNIVERSITE, priority 2015, published 2018)
